Columns and labels:
Assay in all cases: Test E pre-/postemergence greenhouse test, plant response rating 0-100
Type in all cases: in vivo
[1] = test system: hairy beggarticks (Bidens pilosa); conditions: scale 0 to 100; for Plant response rating, Beggarticks: Postemergence; for Beggarticks plant response rating: Preemergence
Summary of the method: (§1)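 Each species was tested both preemergence, with chemicals sprayed onto freshly planted silt loam, and postemergence, on plants 2 to 18 cm tall in a peat-based medium; the vehicle was a non-phytotoxic solvent mixture with surfactant. After 14 to 21 days in the greenhouse, growth was visually compared with controls and scored 0–100.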

[2] = test system: sandbur (southern sandbur, Cenchrus echinatus); conditions: scale 0 to 100; for Plant response rating, Sandbur: Postemergence; for Sandbur plant response rating: Preemergence
Summary of the method: as §1

[3] = test system: soybean (Glycine max); conditions: scale 0 to 100; for Plant response rating, Soybean: Postemergence; for Soybean plant response rating: Preemergence
Summary of the method: as §1

[4] = test system: Italian ryegrass (Lolium multiflorum); conditions: scale 0 to 100; for Plant response rating, Ryegrass, Italian: Postemergence; for Ryegrass, Italian plant response rating: Preemergence
Summary of the method: as §1

[5] = test system: barnyardgrass (Echinochloa crus-galli); conditions: scale 0 to 100; for Plant response rating, Barnyardgrass: Postemergence; for Barnyardgrass plant response rating: Preemergence
Summary of the method: as §1

[6] = test system: fall panicum (Panicum dichotomiflorum); conditions: scale 0 to 100; for Plant response rating, Panicum, Fall: Postemergence; for Panicum, Fall plant response rating: Preemergence
Summary of the method: as §1

[7] = test system: waterhemp (common waterhemp, Amaranthus rudis); conditions: scale 0 to 100; for Plant response rating, Waterhemp: Postemergence; for Waterhemp plant response rating: Preemergence
Summary of the method: as §1

[8] = test system: corn (Zea mays); conditions: scale 0 to 100; for Plant response rating, Corn: Postemergence; for Corn plant response rating: Preemergence
Summary of the method: as §1

[9] = test system: field bindweed (Convolvulus arvensis); conditions: scale 0 to 100; for Plant response rating, Field Bindweed: Postemergence; for Field Bindweed plant response rating: Preemergence
Summary of the method: as §1

[10] = test system: wild poinsettia (Euphorbia heterophylla); conditions: scale 0 to 100; for Plant response rating, Poinsettia, Wild: Postemergence; for Poinsettia, Wild plant response rating: Preemergence
Summary of the method: as §1

[11] = test system: Brazilian crabgrass (Digitaria horizontalis); conditions: Postemergence, scale 0 to 100
Summary of the method: as §1

[12] = test system: dayflower (Virginia (VA) dayflower, Commelina virginica); conditions: scale 0 to 100; for Plant response rating, Dayflower, VA: Postemergence; for Dayflower, VA plant response rating: Preemergence
Summary of the method: as §1

## O=C(c1ccccc1)c1cn(S(=O)(=O)CCl)nc1-c1cc(Cl)cc(Cl)c1 [Compound 1]
[1]; 31 g ai/ha
  Plant response rating, Beggarticks: 30
  Beggarticks plant response rating: 0
[1]; 62 g ai/ha
  Plant response rating, Beggarticks: 95
  Beggarticks plant response rating: 0
[1]; 125 g ai/ha
  Plant response rating, Beggarticks: 98
  Beggarticks plant response rating: 0
[1]; 250 g ai/ha
  Plant response rating, Beggarticks: 98
  Beggarticks plant response rating: 35
[1]; 500 g ai/ha
  Plant response rating, Beggarticks: 98
  Beggarticks plant response rating: 35
[2]; 31 g ai/ha
  Plant response rating, Sandbur: 0
  Sandbur plant response rating: 0
[2]; 62 g ai/ha
  Plant response rating, Sandbur: 0
  Sandbur plant response rating: 0
[2]; 125 g ai/ha
  Plant response rating, Sandbur: 0
  Sandbur plant response rating: 0
[2]; 250 g ai/ha
  Plant response rating, Sandbur: 0
  Sandbur plant response rating: 20
[2]; 500 g ai/ha
  Plant response rating, Sandbur: 0
  Sandbur plant response rating: 20
[3]; 31 g ai/ha
  Plant response rating, Soybean: 0
  Soybean plant response rating: 0
[3]; 62 g ai/ha
  Plant response rating, Soybean: 0
  Soybean plant response rating: 0
[3]; 125 g ai/ha
  Plant response rating, Soybean: 0
  Soybean plant response rating: 0
[3]; 250 g ai/ha
  Plant response rating, Soybean: 0
  Soybean plant response rating: 0
[3]; 500 g ai/ha
  Plant response rating, Soybean: 0
  Soybean plant response rating: 0
[4]; 31 g ai/ha
  Plant response rating, Ryegrass, Italian: 0
  Ryegrass, Italian plant response rating: 0
[4]; 62 g ai/ha
  Plant response rating, Ryegrass, Italian: 0
  Ryegrass, Italian plant response rating: 0
[4]; 125 g ai/ha
  Plant response rating, Ryegrass, Italian: 0
  Ryegrass, Italian plant response rating: 0
[4]; 250 g ai/ha
  Plant response rating, Ryegrass, Italian: 0
  Ryegrass, Italian plant response rating: 0
[4]; 500 g ai/ha
  Plant response rating, Ryegrass, Italian: 0
  Ryegrass, Italian plant response rating: 0
[5]; 31 g ai/ha
  Plant response rating, Barnyardgrass: 0
[5]; 62 g ai/ha
  Plant response rating, Barnyardgrass: 0
  Barnyardgrass plant response rating: 0
[5]; 125 g ai/ha
  Plant response rating, Barnyardgrass: 0
  Barnyardgrass plant response rating: 0
[5]; 250 g ai/ha
  Plant response rating, Barnyardgrass: 0
  Barnyardgrass plant response rating: 0
[5]; 500 g ai/ha
  Plant response rating, Barnyardgrass: 0
  Barnyardgrass plant response rating: 0
[6]; 31 g ai/ha
  Plant response rating, Panicum, Fall: 0
  Panicum, Fall plant response rating: 0
[6]; 62 g ai/ha
  Plant response rating, Panicum, Fall: 0
  Panicum, Fall plant response rating: 0
[6]; 125 g ai/ha
  Plant response rating, Panicum, Fall: 0
  Panicum, Fall plant response rating: 0
[6]; 250 g ai/ha
  Plant response rating, Panicum, Fall: 0
  Panicum, Fall plant response rating: 0
[6]; 500 g ai/ha
  Plant response rating, Panicum, Fall: 0
  Panicum, Fall plant response rating: 0
[7]; 31 g ai/ha
  Plant response rating, Waterhemp: 65
  Waterhemp plant response rating: 0
[7]; 62 g ai/ha
  Plant response rating, Waterhemp: 90
  Waterhemp plant response rating: 20
[7]; 125 g ai/ha
  Plant response rating, Waterhemp: 98
  Waterhemp plant response rating: 60
[7]; 250 g ai/ha
  Plant response rating, Waterhemp: 98
  Waterhemp plant response rating: 60
[7]; 500 g ai/ha
  Plant response rating, Waterhemp: 100
  Waterhemp plant response rating: 100
[8]; 31 g ai/ha
  Plant response rating, Corn: 0
  Corn plant response rating: 0
[8]; 62 g ai/ha
  Plant response rating, Corn: 0
  Corn plant response rating: 0
[8]; 125 g ai/ha
  Plant response rating, Corn: 0
  Corn plant response rating: 0
[8]; 250 g ai/ha
  Plant response rating, Corn: 0
  Corn plant response rating: 0
[8]; 500 g ai/ha
  Plant response rating, Corn: 0
  Corn plant response rating: 0
[9]; 31 g ai/ha
  Plant response rating, Field Bindweed: 0
  Field Bindweed plant response rating: 0
[9]; 62 g ai/ha
  Plant response rating, Field Bindweed: 0
  Field Bindweed plant response rating: 0
[9]; 125 g ai/ha
  Plant response rating, Field Bindweed: 0
  Field Bindweed plant response rating: 0
[9]; 250 g ai/ha
  Plant response rating, Field Bindweed: 0
  Field Bindweed plant response rating: 0
[9]; 500 g ai/ha
  Plant response rating, Field Bindweed: 0
  Field Bindweed plant response rating: 0
[10]; 31 g ai/ha
  Plant response rating, Poinsettia, Wild: 0
  Poinsettia, Wild plant response rating: 0
[10]; 62 g ai/ha
  Plant response rating, Poinsettia, Wild: 0
  Poinsettia, Wild plant response rating: 0
[10]; 125 g ai/ha
  Plant response rating, Poinsettia, Wild: 0
  Poinsettia, Wild plant response rating: 0
[10]; 250 g ai/ha
  Plant response rating, Poinsettia, Wild: 0
[10]; 500 g ai/ha
  Plant response rating, Poinsettia, Wild: 0
  Poinsettia, Wild plant response rating: 0
[11]; 31 g ai/ha
  Plant response rating, Crabgrass, Brazil: 0
[11]; 62 g ai/ha
  Plant response rating, Crabgrass, Brazil: 0
[11]; 125 g ai/ha
  Plant response rating, Crabgrass, Brazil: 0
[11]; 250 g ai/ha
  Plant response rating, Crabgrass, Brazil: 0
[11]; 500 g ai/ha
  Plant response rating, Crabgrass, Brazil: 0
[12]; 31 g ai/ha
  Plant response rating, Dayflower, VA: 0
  Dayflower, VA plant response rating: 0
[12]; 62 g ai/ha
  Plant response rating, Dayflower, VA: 0
[12]; 125 g ai/ha
  Plant response rating, Dayflower, VA: 0
  Dayflower, VA plant response rating: 0
[12]; 250 g ai/ha
  Plant response rating, Dayflower, VA: 0
  Dayflower, VA plant response rating: 0
[12]; 500 g ai/ha
  Plant response rating, Dayflower, VA: 0
  Dayflower, VA plant response rating: 0

Reference: patent US10167262B2, “Herbicidal substituted 3-arylpyrazoles” (FMC CORPORATION, priority 2014, dated 2019)
